According to patent publication US20250034136A1 (Nimbus Wadjet, Inc., priority 2023, published 2025):

Tests used:
[1] = tested on: p21 induction in HCT116 cells; test: p21 induction in HCT116 cells; type: cell-based; conditions: Homo sapiens, HCT-116, 24 h, HCT116 cells, 24 h compound incubation; read-out: P21_EC50
Summary of the method: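 HCT116 cells, 2,000/well, treated 24 h at 37 °C with 11-point compound dilutions in duplicate. Fixed, then immunostained for p21 and GAPDH and read by near-IR imaging at 800/700 nm. Normalized to DMSO (low) and reference WRN inhibitor (high) controls; EC50 from non-linear regression.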

[2] = target: WRN (BV08), human Werner helicase (Uniprot Q14191, amino acids 517-1235 with L1074F point mutation) (Homo sapiens (Human), UniProt Q14191, L1074F); test: WRN (BV08) ADP-Glo assay; type: biochemical; conditions: class symbols A-E, read-out: ADP-Glo_hWRN_IC50
Sequence of WRN (BV08), human Werner helicase (Uniprot Q14191, amino acids 517-1235 with L1074F point mutation) (Q14191 other isoform, or with tags, fused parts or gaps L1074F (already in the parent)): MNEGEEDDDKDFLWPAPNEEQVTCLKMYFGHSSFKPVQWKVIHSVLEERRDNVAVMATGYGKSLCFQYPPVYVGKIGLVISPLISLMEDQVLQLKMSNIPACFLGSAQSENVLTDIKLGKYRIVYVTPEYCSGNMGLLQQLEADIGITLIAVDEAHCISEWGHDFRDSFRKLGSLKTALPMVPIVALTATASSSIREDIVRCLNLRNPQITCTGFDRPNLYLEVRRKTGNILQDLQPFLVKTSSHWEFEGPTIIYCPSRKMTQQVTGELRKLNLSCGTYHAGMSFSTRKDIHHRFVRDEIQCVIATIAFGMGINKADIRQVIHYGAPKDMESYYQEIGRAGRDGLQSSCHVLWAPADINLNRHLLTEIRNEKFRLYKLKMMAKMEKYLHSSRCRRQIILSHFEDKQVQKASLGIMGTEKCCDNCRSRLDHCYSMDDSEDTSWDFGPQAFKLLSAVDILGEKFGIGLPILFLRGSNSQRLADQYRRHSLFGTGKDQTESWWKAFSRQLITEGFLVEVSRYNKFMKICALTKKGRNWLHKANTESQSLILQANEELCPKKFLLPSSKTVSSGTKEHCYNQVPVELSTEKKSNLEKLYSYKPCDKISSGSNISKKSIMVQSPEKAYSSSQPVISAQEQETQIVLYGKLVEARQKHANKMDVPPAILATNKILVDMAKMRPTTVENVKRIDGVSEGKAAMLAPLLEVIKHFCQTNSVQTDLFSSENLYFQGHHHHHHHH

EC50 [1] [µM] | IC50 [2] [µM] | Structure (SMILES)
> 5 | 0.005 to 0.05 | CCc1c(N2CCN(C(=O)c3ncnc(C)c3O)[C@H]3CC[C@@H]32)c(=O)c2nc(N3CCNCC3)cnc2n1CC(=O)Nc1ccc(C(F)(F)F)cc1Cl [I-263, N-[2-chloro-4-(trifluoromethyl)phenyl]-2-{6-ethyl-7-[(1S,6S)-5-(5-hydroxy-6-methylpyrimidine-4-carbonyl)-2,5-diazabicyclo[4.2.0]octan-2-yl]-8-oxo-2-(piperazin-1-yl)-5H,8H-pyrido[2,3-b]pyrazin-5-yl}acetamide]
< 0.5 | 0.005 to 0.05 | CCc1c(N2CCN(C(=O)c3ncnc(C)c3O)[C@H]3CC[C@@H]32)c(=O)c2nc(N(C)CCO)cnc2n1CC(=O)Nc1ccc(C(F)(F)F)cc1Cl [I-264, N-[2-chloro-4-(trifluoromethyl)phenyl]-2-{6-ethyl-7-[(1S,6S)-5-(5-hydroxy-6-methylpyrimidine-4-carbonyl)-2,5-diazabicyclo[4.2.0]octan-2-yl]-2-[(2-hydroxyethyl)(methyl)amino]-8-oxo-5H,8H-pyrido[2,3-b]pyrazin-5-yl}acetamide]
2 to 5 | 0.005 to 0.05 | CCc1c(N2CCN(C(=O)c3cccc4ncoc34)[C@H]3CC[C@@H]32)c(=O)c2nc(N(C)C)cnc2n1CC(=O)Nc1ccc(C(F)(F)F)cc1Cl [I-265, 2-{7-[(1S,6S)-5-(1,3-benzoxazole-7-carbonyl)-2,5-diazabicyclo[4.2.0]octan-2-yl]-2-(dimethylamino)-6-ethyl-8-oxo-5H,8H-pyrido[2,3-b]pyrazin-5-yl}-N-[2-chloro-4-(trifluoromethyl)phenyl]acetamide]
0.5 to 2 | 0.005 to 0.05 | CCc1c(N2CCN(C(=O)c3ncnc(C)c3O)[C@H]3CC[C@@H]32)c(=O)c2nc(N[C@H](C)[C@H](C)O)cnc2n1CC(=O)Nc1ccc(C(F)(F)F)cc1Cl [I-266, N-[2-chloro-4-(trifluoromethyl)phenyl]-2-{6-ethyl-7-[(1S,6S)-5-(5-hydroxy-6-methylpyrimidine-4-carbonyl)-2,5-diazabicyclo[4.2.0]octan-2-yl]-2-{[(2R,3S)-3-hydroxybutan-2-yl]amino}-8-oxo-5H,8H-pyrido[2,3-b]pyrazin-5-yl}acetamide]
< 0.5 | 0.005 to 0.05 | CCc1c(N2CCN(C(=O)c3ncnc(C)c3O)[C@H]3CC[C@@H]32)c(=O)c2nc(N(C)[C@H]3C[C@H](OC)C3)cnc2n1CC(=O)Nc1ccc(C(F)(F)F)cc1Cl [I-267, N-[2-chloro-4-(trifluoromethyl)phenyl]-2-{6-ethyl-7-[(1S,6S)-5-(5-hydroxy-6-methylpyrimidine-4-carbonyl)-2,5-diazabicyclo[4.2.0]octan-2-yl]-2-{methyl[(1r,3r)-3-methoxycyclobutyl]amino}-8-oxo-5H,8H-pyrido[2,3-b]pyrazin-5-yl}acetamide]
< 0.5 | ≤ 0.005 | CCc1c(N2CCN(C(=O)c3ncnc(C)c3O)[C@H]3CC[C@@H]32)c(=O)c2nc(-c3cn[nH]c3)cnc2n1CC(=O)Nc1ccc(C(F)(F)F)cc1Cl [I-268, N-[2-chloro-4-(trifluoromethyl)phenyl]-2-{6-ethyl-7-[(1S,6S)-5-(5-hydroxy-6-methylpyrimidine-4-carbonyl)-2,5-diazabicyclo[4.2.0]octan-2-yl]-8-oxo-2-(1H-pyrazol-4-yl)-5H,8H-pyrido[2,3-b]pyrazin-5-yl}acetamide]
< 0.5 | 0.005 to 0.05 | CCc1c(N2CCN(C(=O)c3ncnc(C)c3O)[C@H]3CC[C@@H]32)c(=O)c2nc(N(C)C[C@H](C)OC)cnc2n1CC(=O)Nc1ccc(C(F)(F)F)cc1Cl [I-269, N-[2-chloro-4-(trifluoromethyl)phenyl]-2-{6-ethyl-7-[(1S,6S)-5-(5-hydroxy-6-methylpyrimidine-4-carbonyl)-2,5-diazabicyclo[4.2.0]octan-2-yl]-2-{[(2S)-2-methoxypropyl](methyl)amino}-8-oxo-5H,8H-pyrido[2,3-b]pyrazin-5-yl}acetamide]
